Like-named read-outs stand apart in the source and are kept apart here.
Tests used:
RGC-5 cells = assay type: cell-based; design: toxic reaction / protective activity: dose or concentration left out as unconfirmed; settings: for protection effect (cell viability): 500 μM hydrogen peroxide, 24 h pre-treatment
Description: (§1) The present experiment took human retinal cell (ARPE-19) and rat retinal ganglion cells (RGC-5) as model cell lines. ARPE-19 cells were cultured in DMEM-F12 medium containing 10% fetal bovine serum (FBS), 0.2% sodium bicarbonate and antibiotics (penicillin 100 units/ml, streptomycin 100 μg/ml); RGC-5 were cultured in DMEM medium containing 10% fetal bovine serum (FBS) and antibiotics (penicillin 100 units/ml, streptomycin 100 μg/ml).
(§2) ARPE-19 and RGC-5 cells were seeded in 96-well plate. After 1 day, the cells were pre-treated with different concentrations of Dendrobii Caulis extract (A or A-2) or compounds 1-4 for 24 hours, and then exposed to (1) hydrogen peroxide (H2O2; 500 μM)) or (2) hypoxic environment or (3) ultraviolet (UV) irradiation (30 μJ/cm^2; three consecutive shots, for 60 seconds each with 60 second intervals, to trigger cell death. After 24-h culture, medium was removed and replaced with 10% precooled trichloroacetic acid (TCA) to fix cells at 4° C. for 1 h, then washed with ddH2O and dried. Next, 0.4% SRB 100 μl (w/v, in 1% acetic acid) was added to each well to stain the cells for 60 minutes, then washed several times with 1% acetic acid and dried plate.—The SRB in cells was dissolved in 150 μl of 10 mM Tris-HCl and measured the absorbance at 540 nm in an ELISA reader. The survival rate was calculated by comparing each treatment with the untreated control group as the 100% survival rate.

ARPE-19 cells = assay type: cell-based; design: protective activity / toxic reaction: dose or concentration left out as unconfirmed; settings: for protection effect (cell viability): 500 μM hydrogen peroxide, 24 h pre-treatment
Description: as §1, §2

zebrafish cataract = experiment: UVC-induced zebrafish cataract test; assay type: in vivo
Description: Zebrafish were randomly grouped (12 for each group) into blank control group, UVC irradiation group (300 μJ/cm^2) and UVC irradiation+treating group with A-2 at 0.495, 0.99, and 4.95 mg/ml three dosages or with compound 1 at 0.1 and 1.0 mM two dosages. The zebrafish were pre-fed with A-2 or compound 1 for one week, then subjected to UVC irradiation to observe the crystal change of the zebrafish daily. Before irradiating with UVC, the zebrafish is under anesthesia to expose only its eye to UVC (300 μJ/cm^2) for about 3 minutes, consecutively holding for seven days. The zebrafish eyes were observed every day. The severity of zebrafish cataract was scored from 1 to 3, depending on the clear level of the crystal body, in which the higher score represents the more turbidity of the crystal body. The scores are then plotted.

retinal damage = settings: absence of oxygen; recent study; cited from earlier work
optic nerve cell strains = settings: some studies; cited from earlier work
[1] = 1-10 mM, hydrogen peroxide, hypoxia or UV treatment
[2] = hydrogen peroxide, hypoxia or UV irradiation
[3] = hydrogen peroxide, hypoxia or UV treatment
[4] = hydrogen peroxide and ultraviolet light

With `CC(C)[C@@H]1[C@H]2OC(=O)[C@@H]1[C@@H]1CC[C@@H]3CN(C)[C@H]2[C@@]31C` [compound 3, dendrobine] the “protection effect (cell viability)” value (RGC-5 cells; hypoxia or UV irradiation) was “does not show enough protective activity” and the “protection effect (cell viability)” value (ARPE-19 cells; hypoxia or UV irradiation) was “does not show enough protective activity”.
For `CC(C)(O)[C@H]1C2C(=O)OC1[C@@H](O)[C@]1(C)C2CC[C@H]1COC1OC(CO)C(O)C(O)C1O` (stereo partly drawn) [compound 1, 2β, 3β, 11, 12-tetrahydroxypicrotoxan-3(15)-olide 11-O-β-D-glucopyranoside], the toxic reaction (RGC-5 cells) was “no toxic reaction”, the “protection effect (cell viability)” value (RGC-5 cells; hypoxia or UV irradiation) was “can protect” and the “concentration dependence of protective activity” value (RGC-5 cells; [1]) was “concentration-dependent protective activity”. The “protective effect compared with lutein” value (RGC-5 cells; [2]) was “superior to lutein”, the protective activity (RGC-5 cells; [3]) was “more than 80%” and the toxic reaction (ARPE-19 cells) was “no toxic reaction”. For the same compound, the “protection effect (cell viability)” value (ARPE-19 cells; hypoxia or UV irradiation) was “can protect”, the “concentration dependence of protective activity” value (ARPE-19 cells; [1]) was “concentration-dependent protective activity” and the “protective effect compared with lutein” value (ARPE-19 cells; [2]) was “superior to lutein”. The protective activity (ARPE-19 cells; [3]) was “more than 80%”, the “occurrence of UV-induced cataract” value (zebrafish cataract; 1 mM, fourth day) was “almost no cataract occurred” and the “occurrence of UV-induced cataract” value (zebrafish cataract; 0.1 and 1.0 mM, pre-fed one week) was “can significantly reduce the occurrence of zebrafish cataract”.
For `CC(C)(O)[C@H]1C2C(=O)OC1[C@@H](O)[C@]1(C)C2CC[C@H]1CO` (stereo partly drawn) [compound 2, 2β, 3β, 11, 12-tetrahydroxypicrotoxan-3 (15)-olide], the “protection (cell viability)” value (RGC-5 cells; [4]) was “can also protect”, the “protective effect compared with lutein” value (RGC-5 cells; [4]) was “comparable to lutein” and the “protection (cell viability)” value (ARPE-19 cells; [4]) was “can also protect”. For the same compound, the “protective effect compared with lutein” value (ARPE-19 cells; [4]) was “comparable to lutein”.
In the case of `COc1cc(CCc2cc(OC)c(O)c(OC)c2)ccc1O` [moscatilin], the “protection of retinal damage” value (retinal damage) is given as “can protect retinal damage in the absence of oxygen” and the “toxicity to optic nerve cell strains” value (optic nerve cell strains) is given as “toxic”.

Reference: patent publication US11576918B2, “Pharmaceutical composition and extract of Dendrobii Caulis with eye care effect and uses of preparing the same thereof” (AMX Pharma Inc., priority 2019, dated 2023)
